From patent US9051322B2, “Process for the production of a pemetrexed salt” (SCINOPHARM TAIWAN, LTD., priority 2011, dated 2015)
Where a name gives a salt, the structure may show the parent alone.

Test: Stability of pemetrexed disodium in sodium hydroxide at different temperature (impurity content by HPLC)
Type: physicochemical
Method: In comparison with the prior art, the embodiments of the present invention have the following advantages: • 1) The reaction of the compound of formula (II) or salt thereof with an aqueous basic solution is preferably conducted at a low temperature, e.g., no more than 10° C., in comparison with the room temperature of WO2001014379 and WO1999016742. As shown in Table 1 shown below, the inventors of the present invention unexpectedly discovered that impurities can be reduced or minimized by conducting the reaction at a low temperature. As noted above, after the reaction step, the low temperature is preferably maintained during the steps of adjusting pH and adding anti-solvent. • 2) The anti-solvent is preferably added before adjusting the pH value. The inventors unexpectedly discovered that by doing so, the mixture can be diluted by the addition of the anti-solvent before the adjusting step, therefore minimizing local heat effect and formation of impurities. In comparison, WO2001014379 discloses adjusting the pH value before the addition of an anti-solvent. • 3) In accordance with the present invention, the compound of formula (II) can be converted to a pemetrexed salt (e.g., at a pH of 6.5 to 9.5). In contrast, the process of WO1999016472 comprises making pemetrexed free form first (at a pH of about 3), and then converting the free form to a salt (at a pH of about 6.5 to 9.5). The process of the present invention is simpler and more convenient. • 4) In accordance with an embodiment of the present invention, the crude pemetrexed salt may be crystallized at a room temperature; whereas in accordance with WO2001014379, the crystallizing is conducted at about 70° C. The cooling, heating, and adjusting pH steps of WO2001014379 may be avoided in accordance with the embodiment of the present invention. The process of the present invention can save workup procedures and has better control of impurity.

Nc1nc2[nH]cc(CCc3ccc(C(=O)N[C@@H](CCC(=O)O)C(=O)O)cc3)c2c(=O)[nH]1 [pemetrexed disodium, L-Glutamic acid, N-[4-[2-(2-amino-4,7-dihydro-4-oxo-1H-pyrrolo[2,3-d]pyrimidin-5-yl)ethyl]benzoyl]-, disodium salt]
content of impurity based on HPLC spectra's % Area (5 °C, 1 hr): 0.012% | content of impurity based on HPLC spectra's % Area (5 °C, 2 hr): 0.013% | content of impurity based on HPLC spectra's % Area (5 °C, 4 h): 0.035% | content of impurity based on HPLC spectra's % Area (5 °C, 6 hr): 0.066% | content of impurity based on HPLC spectra's % Area (10 °C, 1 hr): 0.051% | content of impurity based on HPLC spectra's % Area (10 °C, 2 hr): 0.053% | content of impurity based on HPLC spectra's % Area (10 °C, 4 h): 0.070% | content of impurity based on HPLC spectra's % Area (10 °C, 6 hr): 0.075% | content of impurity based on HPLC spectra's % Area (15 °C, 1 hr): 0.076% | content of impurity based on HPLC spectra's % Area (15 °C, 2 hr): 0.085% | content of impurity based on HPLC spectra's % Area (15 °C, 4 h): 0.110% | content of impurity based on HPLC spectra's % Area (15 °C, 6 hr): 0.123%
